# Results as given in PubChem BioAssay AID276 (DTP/NCI, 2004).
# Values joined by “and” are separate entries in the source; they are usually repeats but may differ in a detail not shown here. Equal values may be shown once. Inconclusive results and toxic doses are left out.
# System: B6C3F1 mice, Lewis lung carcinoma iv, survival T/C
# Test: NCI In Vivo Anticancer Drug Screen. Data for tumor model Lewis Lung Carcinoma (intravenous) in B6C3F1 mice
# Details: endpoint: median survival time, schedule: Q01DX009 (ip), higher = longer survival
# Method in brief: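 T/C ratio derived from survival of compound-treated versus vehicle-treated mice bearing transplantable tumors.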
# [1] = dose: 0.75 mg/kg/injection, vehicle: water
# [2] = dose: 1.5 mg/kg/injection, vehicle: water
# [3] = dose: 3.0 mg/kg/injection, vehicle: water
# [4] = dose: 6.0 mg/kg/injection, vehicle: water
# [5] = dose: 6.25 mg/kg/injection, vehicle: saline
# [6] = dose: 12.5 mg/kg/injection, vehicle: saline
# [7] = dose: 100.0 mg/kg/injection, vehicle: saline
# [8] = dose: 6.25 mg/kg/injection, vehicle: saline with Tween-80
# [9] = dose: 12.5 mg/kg/injection, vehicle: saline with Tween-80
# [10] = dose: 25.0 mg/kg/injection, vehicle: saline with Tween-80
# [11] = dose: 50.0 mg/kg/injection, vehicle: saline with Tween-80
# [12] = dose: 100.0 mg/kg/injection, vehicle: saline with Tween-80
smiles,measurement,setting,value
COc1cccc2c1C(=O)c1c(O)c3c(c(O)c1C2=O)C[C@H](O)C[C@@H]3OC1CC(N)C(O)C(C)O1 (stereo partly drawn),T/C,[1],100 % of control
same,T/C,[2],104 % of control
same,T/C,[3],100 % of control
same,T/C,[4],104 % of control
O=C(/C=C(\Cl)C(=O)NO)NO,T/C,[5],115 % of control
same,T/C,[6],112 % of control
same,T/C,"dose: 50.0 mg/kg/injection, vehicle: saline",110 % of control
same,T/C,[7],104 % of control
C1OC1C1CO1 (stereo not drawn),T/C,"dose: 1.25 mg/kg/injection, vehicle: suspension in saline",101 % of control
same,T/C,"dose: 2.5 mg/kg/injection, vehicle: suspension in saline",112 % of control
same,T/C,"dose: 5.0 mg/kg/injection, vehicle: suspension in saline",105 % of control
same,T/C,"dose: 10.0 mg/kg/injection, vehicle: suspension in saline",99 % of control
same,T/C,"dose: 20.0 mg/kg/injection, vehicle: suspension in saline",101 % of control
same,T/C,"dose: 40.0 mg/kg/injection, vehicle: suspension in saline",108 % of control
OCCO,T/C,"dose: 0.12 % in 0.5 ml injection vol, vehicle: water",107 % of control
same,T/C,"dose: 0.25 % in 0.5 ml injection vol, vehicle: water",109 % of control
same,T/C,"dose: 0.5 % in 0.5 ml injection vol, vehicle: water",95 % of control
same,T/C,"dose: 1.0 % in 0.5 ml injection vol, vehicle: water",99 % of control
same,T/C,"dose: 2.0 % in 0.5 ml injection vol, vehicle: water",97 % of control
same,T/C,"dose: 4.0 % in 0.5 ml injection vol, vehicle: water",99 % of control
CO[C@H]1Nc2c(ccc(C)c2O)C(=O)N2C=C(/C=C/C(N)=O)C[C@@H]12,T/C,"dose: 0.06 mg/kg/injection, vehicle: saline + alcohol",105 % of control
same,T/C,"dose: 0.12 mg/kg/injection, vehicle: saline + alcohol",100 % of control
same,T/C,"dose: 0.25 mg/kg/injection, vehicle: saline + alcohol",113 % of control
COc1ccc2c(c1)CCn1c(C)c(COC(=O)NC(C)C)c(COC(=O)NC(C)C)c1-2,T/C,"dose: 3.12 mg/kg/injection, vehicle: distilled water + Tween-80",102 % of control
same,T/C,"dose: 6.25 mg/kg/injection, vehicle: distilled water + Tween-80",99 % of control
same,T/C,"dose: 12.5 mg/kg/injection, vehicle: distilled water + Tween-80",87 % of control
CNC=O,T/C,[7],106 % of control
same,T/C,"dose: 200.0 mg/kg/injection, vehicle: saline",110 % of control
Cc1cc(=O)n2c3c(c4c(cc13)c(CN(C)C)cc(=O)n4C)OC2,T/C,[8],106 % of control
same,T/C,[9],105 % of control
same,T/C,[10],109 % of control
same,T/C,[11],123 % of control
O=c1nc(-c2ccco2)sc(=O)[nH]1,T/C,"dose: 12.0 mg/kg/injection, vehicle: Klucel (hydroxypropylcellulose) (HPC)",112 % of control
same,T/C,"dose: 25.0 mg/kg/injection, vehicle: Klucel (hydroxypropylcellulose) (HPC)",96 % of control
same,T/C,"dose: 50.0 mg/kg/injection, vehicle: Klucel (hydroxypropylcellulose) (HPC)",105 % of control
same,T/C,"dose: 100.0 mg/kg/injection, vehicle: Klucel (hydroxypropylcellulose) (HPC)",116 % of control
same,T/C,"dose: 200.0 mg/kg/injection, vehicle: Klucel (hydroxypropylcellulose) (HPC)",104 % of control
O=NN(CCF)C(=O)NC1CCC(=O)NC1=O (stereo not drawn),T/C,"dose: 2.5 mg/kg/injection, vehicle: saline",118 % of control
same,T/C,"dose: 10.0 mg/kg/injection, vehicle: saline",166 % of control
same,T/C,"dose: 20.0 mg/kg/injection, vehicle: saline",312 % of control
CN(C)N=Nc1cccc(C(N)=O)c1,T/C,"dose: 10.0 mg/kg/injection, vehicle: Klucel (hydroxypropylcellulose) (HPC)",114 % of control
same,T/C,"dose: 20.0 mg/kg/injection, vehicle: Klucel (hydroxypropylcellulose) (HPC)",115 % of control
CN(C)/N=N/c1nc[nH]c1C(N)=O,T/C,"dose: 12.5 mg/kg/injection, vehicle: Klucel (hydroxypropylcellulose) (HPC)",229 % of control
CN(C)CCOc1ccc2c(c1)C/C(=C/c1ncc([N+](=O)[O-])n1C)C2=O,T/C,[8],102 % of control
same,T/C,[9],88 % of control
same,T/C,[10],104 % of control
same,T/C,[11],100 % of control
CC(Cc1ccc(O)c(O)c1)C(C)Cc1ccc(O)c(O)c1 (stereo not drawn),T/C,"dose: 12.0 mg/kg/injection, vehicle: saline with Tween-80",100 % of control
same,T/C,[10],113 % of control
same,T/C,[11],103 % of control
same,T/C,[12],94 % of control
same,T/C,"dose: 200.0 mg/kg/injection, vehicle: saline with Tween-80",104 % of control
same,T/C,"dose: 400.0 mg/kg/injection, vehicle: saline with Tween-80",100 % of control
COc1cccc2c1C(=O)c1c(O)c3c(c(O)c1C2=O)C[C@@](O)(C(C)=O)C[C@@H]3OC1CC(N)C(O)C(C)O1 (stereo partly drawn),T/C,"dose: 0.25 mg/kg/injection, vehicle: saline",86 % of control
same,T/C,"dose: 0.5 mg/kg/injection, vehicle: saline",123 % of control
same,T/C,"dose: 1.0 mg/kg/injection, vehicle: saline",112 % of control
Cc1c2cc[n+](CCN3CCCCC3)cc2c(C)c2c1[nH]c1ccc(O)cc12,T/C,"dose: 1.56 mg/kg/injection, vehicle: saline",94 % of control
same,T/C,"dose: 3.12 mg/kg/injection, vehicle: saline",116 % of control
same,T/C,[5],106 % of control
same,T/C,[6],103 % of control
same,T/C,"dose: 25.0 mg/kg/injection, vehicle: saline",104 % of control
O=[N+]([O-])c1ccc(Sc2ccncn2)c([N+](=O)[O-])c1,T/C,[8],90 % of control
same,T/C,[9],102 % of control
same,T/C,[10],95 % of control
same,T/C,[11],86 % of control
same,T/C,[12],99 % of control
Nc1nc(N)c2c(ccc3c2ccn3Cc2cccc([N+](=O)[O-])c2)n1,T/C,"dose: 1.56 mg/kg/injection, vehicle: saline with Tween-80",98 % of control
same,T/C,"dose: 3.12 mg/kg/injection, vehicle: saline with Tween-80",102 % of control
same,T/C,[8],103 % of control
Cc1oc2c(C)c3oc(=O)cc(C)c3cc2c1CCl,T/C,[9],103 % of control
same,T/C,[10],101 % of control
COc1ccc(/C=C/C(=O)c2cc(C(=O)O)c(OC)cc2OC)cc1OC,T/C,"dose: 12.5 mg/kg/injection, vehicle: suspension in saline",98 % of control
same,T/C,"dose: 25.0 mg/kg/injection, vehicle: suspension in saline",104 % of control
same,T/C,"dose: 50.0 mg/kg/injection, vehicle: suspension in saline",98 % of control
same,T/C,"dose: 100.0 mg/kg/injection, vehicle: suspension in saline",90 % of control
same,T/C,"dose: 200.0 mg/kg/injection, vehicle: suspension in saline",95 % of control
c1cc(OCC2CO2)ccc1OCC1CO1 (stereo not drawn),T/C,[9],96 % of control
same,T/C,[10],94 % of control
same,T/C,[11],100 % of control
same,T/C,[12],96 % of control
COc1cccc2c1C(=O)c1c(O)c3c(c(O)c1C2=O)CC(O)(/C(C)=N/NC(=O)CCC(=O)N/N=C(\C)C1(O)Cc2c(O)c4c(c(O)c2C(OC2CC(N)C(O)C(C)O2)C1)C(=O)c1c(OC)cccc1C4=O)CC3OC1CC(N)C(O)C(C)O1 (stereo not drawn),T/C,[1],99 % of control and 100 % of control
same,T/C,[2],103 % of control and 105 % of control
same,T/C,[3],101 % of control
same,T/C,[4],105 % of control and 260 % of control
same,T/C,"dose: 12.0 mg/kg/injection, vehicle: water",101 % of control and 113 % of control
same,T/C,"dose: 24.0 mg/kg/injection, vehicle: water",104 % of control
c1ccc2c(c1)-c1ccccc1C1NC21 (stereo not drawn),T/C,[8],100 % of control
same,T/C,[9],106 % of control
